The text below walks through data of patent publication US11155523B2, “Biphenyl compound as CCR2/CCR5 receptor antagonist” (Medshine Discovery Inc., priority 2016, dated 2021).

Molecules are shown by their SMILES.

One data set has as its target T1, CCR2 (Homo sapiens, UniProt P41597).
T1 construct: expressed in transfected cells; host or cells: HEK293, clone C7, passage P6
Put plainly: CCR2 in vitro test: intracellular calcium signal detected by FLIPR. In kind it is cell-based. The note with it: HEK293 cells expressing CCR2, agonist MCP-1 at EC80, calcium signal. In outline:
(§1)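 Receptor-expressing cells loaded with Fluo-4 Direct and probenecid (2.5 mM final), then preincubated with compounds (11-point 1:3 series) before challenge at EC80 of agonist (MCP-1 for CCR2, RANTES for CCR5). FLIPR calcium max−min signal; IC50 fitted.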

Another data set addresses T2, CCR5 (Homo sapiens, UniProt P51681).
T2 construct: expressed in transfected cells; host or cells: HEK293, clone C13, passage P4
The data set can be described thus: CCR5 in vitro test: intracellular calcium signal detected by FLIPR. The note with it: HEK293 cells expressing CCR5, agonist RANTES at EC80, calcium signal. In kind it is cell-based. In outline:
as §1

The nature of data set [1]: Comparative pharmacokinetics study in rats. In kind it is in vivo, SD male rats. The following applies: rat. On the procedure:
Experimental Example 2: Comparative Pharmacokinetics Study in Rats
SD male rats were used as the test animals in this study. The drug concentrations in plasma of the rats by intravenous or oral administration of test compounds WX017, WX047, WX079, WX088 and reference compound at different time points were quantitatively determined by LC/MS/MS, which were used to evaluate the pharmacokinetic profile of the two test drugs in rats.
A clear solution of the test compound was injected into SD rats via the tail vein (overnight fasting, 7-10 weeks old), and the test compound was orally administered to the SD rats (overnight fasting, 7-10 weeks old). Approximately 200 μL of blood was collected from the jugular vein or tail vein of the animals 0.0833, 0.25, 0.5, 1, 2, 4, 6, 8 and 24 hours after administration, and was placed in an anticoagulant tube containing EDTA-K2. The plasma was collected by centrifugation at 3000 g for 15 minutes at 4° C. The plasma concentration was determined by LC-MS/MS. The pharmacokinetic parameters were calculated by the non-compartment model linear logarithmic trapezoidal method using WinNonlin™ Version 6.3 (Pharsight, Mountain View, Calif.) pharmacokinetic software.

For a further data set, the target named is T3, CYP2D6 (Homo sapiens, UniProt P10635).
T3 construct: from tissue; host or cells: human liver microsomes
The data set can be described thus: Inhibition of human liver microsomal CYP2D6 (dextromethorphan probe). In kind it is in vitro ADME. The note with it: human liver microsomes. On the procedure: Experimental Example 4 Inhibition Effect on the Activity of Human Liver Microsomal Cytochrome P450 Isoezymes (CYP1A2, CYP2C9, CYP2C19, CYP2D6 and CYP3A4)
A total of 5 specific probe substrates for CYP's five isozymes, Phenacetin (CYP1A2), Diclofenac (CYP2C9), […] (S)-Mephenytoin, CYP2C19), Dextromethorphan (CYP2D6) and Midazolam (CYP3A4) were incubated with human liver microsomes and test compounds, respectively, and reduced nicotinamide adenine dinucleotide phosphate (NADPH) was added to initiate the reaction. After the reaction, the sample was processed and liquid chromatography tandem mass spectrometry (LC-MS/MS) was used to quantitatively detect the […] metabolites produced by the specific substrate, Acetaminophen and 4′-hydroxydiclofenac, 4′-hydroxymephenytoin, Dextrorphan and 1′-hydroxymidazolam, in order to calculate the corresponding half maximal inhibitory concentration (IC50).

Where [2] appears, read: male, Sprague-Dawley (SD), plasma, intravenous injection 2 mg/kg.

T2 sequence (P51681 whole entry, species assumed): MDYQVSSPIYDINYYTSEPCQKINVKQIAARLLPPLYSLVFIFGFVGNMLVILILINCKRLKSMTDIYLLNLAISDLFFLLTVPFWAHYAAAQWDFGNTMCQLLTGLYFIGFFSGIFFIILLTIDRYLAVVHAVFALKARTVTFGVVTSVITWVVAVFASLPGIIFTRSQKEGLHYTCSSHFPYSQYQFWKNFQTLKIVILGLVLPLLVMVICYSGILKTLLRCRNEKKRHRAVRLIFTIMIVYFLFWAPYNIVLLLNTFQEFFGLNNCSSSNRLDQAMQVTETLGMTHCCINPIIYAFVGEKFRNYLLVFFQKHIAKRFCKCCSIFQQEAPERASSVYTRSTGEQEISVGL
T1 sequence (P41597 whole entry, species assumed): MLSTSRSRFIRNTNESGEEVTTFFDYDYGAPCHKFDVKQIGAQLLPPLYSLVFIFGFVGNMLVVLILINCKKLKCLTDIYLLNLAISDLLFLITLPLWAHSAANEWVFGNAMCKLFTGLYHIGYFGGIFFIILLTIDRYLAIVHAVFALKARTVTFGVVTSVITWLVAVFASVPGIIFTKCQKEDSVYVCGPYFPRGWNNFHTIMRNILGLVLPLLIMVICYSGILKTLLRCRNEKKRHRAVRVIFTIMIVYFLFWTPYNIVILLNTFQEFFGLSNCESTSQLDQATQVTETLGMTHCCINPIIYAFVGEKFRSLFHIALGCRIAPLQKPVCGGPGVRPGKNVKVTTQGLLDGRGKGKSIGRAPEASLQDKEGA
T3 sequence (P10635 whole entry): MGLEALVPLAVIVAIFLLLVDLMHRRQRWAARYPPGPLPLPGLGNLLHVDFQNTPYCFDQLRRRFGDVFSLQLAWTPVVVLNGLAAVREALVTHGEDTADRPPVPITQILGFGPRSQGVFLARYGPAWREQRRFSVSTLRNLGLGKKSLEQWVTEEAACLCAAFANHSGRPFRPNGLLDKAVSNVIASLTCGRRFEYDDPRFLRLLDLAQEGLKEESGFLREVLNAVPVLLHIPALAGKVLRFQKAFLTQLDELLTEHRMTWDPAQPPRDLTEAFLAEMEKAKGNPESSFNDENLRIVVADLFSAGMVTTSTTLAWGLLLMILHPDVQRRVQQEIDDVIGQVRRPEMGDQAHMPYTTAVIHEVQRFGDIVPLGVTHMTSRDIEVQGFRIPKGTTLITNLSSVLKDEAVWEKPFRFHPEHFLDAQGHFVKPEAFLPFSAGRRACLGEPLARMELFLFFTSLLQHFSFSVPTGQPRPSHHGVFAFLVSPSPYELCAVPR

On to `CCCCOCCOc1ccc(-c2ccc(OCC)c(/C=C/C(=O)Nc3ccc([S@+]([O-])Cc4c(C)ncn4CC)cc3)c2)cc1` [WX047], for which the IC50 on CCR2 amounted to 8.2 nM. For the same compound, at CCR5, the half-inhibitory concentration (IC50) was 6.7 nM. In data set [1] (setting [2]), this compound showed a clearance of 0.52 mL/min/kg and a half-life of 3.06 h. The bioavailability in data set [1] (male, Sprague-Dawley (SD), plasma, oral 10 mg/kg vs intravenous 2 mg/kg) is 40.4%. Besides, in data set [1] (intravenous injection 2 mg/kg), the “Area Under a Curve (0-inf)” value amounted to 101.904 µM·h. Besides, in data set [1] (oral 10 mg/kg), the “Area Under a Curve (0-inf/0-last)” value was found to be 204.785 µM·h and the Peak time is reported as 5.0 h. For the same compound, the “Oral plasma system exposure (AUC0-inf) as multiple of the reference compound” value in data set [1] (oral, relative to Cenicriviroc) is listed as 6.4 times. In addition, the “Plasma clearance as percent of that of the reference compound” value in data set [1] (relative to Cenicriviroc) stood at 33%. The compound further gave an IC50 against CYP2D6 of over 50000 nM.
